Numbered stars: 1 amine (or outer) side, 2 acyl side, 3 side chain; on linkers, the order of the positions; unused ones are H or OH. Bridge positions count the residues as written; N and C are the ends. Square brackets hold non-standard residues; d marks the D form. Peptide text beside a SMILES is read from it. * marks the point of attachment. hTyr(3S-OH,4S-OH,3'-OSO3H) = N[C@H](C(=O)O)[C@H](O)[C@@H](O)c1ccc(O)c(OS(=O)(=O)O)c1; Orn(4R-OH,5R-OH) = O=C([C@H](C[C@@H](O)[C@@H](O)N[*:3])N[*:1])[*:2]; Pro(3S-OH,4S-Me) = C[C@H]1CN[C@H](C(=O)O)[C@H]1O; X1 = CCCCCOc1ccc(-c2cc(-c3ccc(C(=O)*)cc3)no2)cc1; Gln(3R-OH) = NC(=O)C[C@@H](O)[C@H](N)C(=O)O; Hyp = O=C(O)[C@@H]1C[C@@H](O)CN1
What was measured:
[1] = test system: plasma protein, primarily albumin; settings: primarily to albumin; ref Astellas Pharma; Hebert et al. [2005b]; cited from earlier work
Safety assessments = assay type: in vivo, human; settings: six AEs reported by four subjects of 19; single 100 mg IV dose
plasma protein = assay: Micafungin plasma protein binding by ultrafiltration; assay type: in vitro ADME, human; settings: 37 °C, range
[2] = ref Dowell et al. [2007]; cited from earlier work

Compound | Protein bound in plasma [1] [%] | Adverse events: seriousness and relation to drug (Safety assessments) | Protein binding (plasma protein; healthy subjects, measurable in three subjects) | Protein binding (plasma protein; subjects with severe hepatic dysfunction, measurable in five subjects) | Lower exposure in subjects with severe hepatic dysfunction compared with healthy controls [2] [%]
CCCCCOc1ccc(-c2cc(-c3ccc(C(=O)N[C@H]4C[C@@H](O)[C@@H](O)NC(=O)[C@@H]5[C@@H](O)[C@@H](C)CN5C(=O)[C@H]([C@H](O)CC(N)=O)NC(=O)[C@H]([C@H](O)[C@@H](O)c5ccc(O)c(OS(=O)(=O)O)c5)NC(=O)[C@@H]5C[C@@H](O)CN5C(=O)[C@H]([C@@H](C)O)NC4=O)cc3)no2)cc1 [micafungin, Micafungin] (X1-[Orn(4R-OH,5R-OH)]T[Hyp][hTyr(3S-OH,4S-OH,3'-OSO3H)][Gln(3R-OH)][Pro(3S-OH,4S-Me)]; lactam 1-C) | > 99 | None of these AEs was considered to be serious or to be related to micafungin | 92.4–99.0% | 86.1–97.6% | 
anidulafungin |  |  |  |  | 33
